According to article PMC11677243, “Target protein identification in live cells and organisms with a non-diffusive proximity tagging system” (eLife, 2024):

How the values were obtained:
[1] = test system: HEK293T cells; assay: POST-IT^DC661-H1 target-ID by SILAC (LC-MS/MS, DC660 competition); type: cell-based, Homo sapiens; settings: heavy: 200 nM DC661-H1, light: DC661-H1 (200 nM) and DC660 (2 µM)
Experimental: A stable HEK293T cells expressing the POST-IT system was generated using the PiggyBac transposon system. Briefly, HEK293T cells on a 60 mm dish were co-transfected with 8 µg of PB-puro-CMV-POST-IT-Tet-SBP^K4R-sPup^K61R-iresGFP and 2 µg of the Super PiggyBac Transposase expression vector (PB200PA-1, System Biosciences, USA). Four days later, cells were treated with 5 µg/ml puromycin for about 2 weeks. Media containing puromycin were changed every 3–4 days.
The stable cell line was cultured in SILAC DMEM (280001200, Silantes, Germany) without arginine, lysine, and glutamine, supplemented with 10% dialyzed FBS (C3820-0100, VivaCell Biosciences, China) and 2 mM glutamine. The SILAC medium included 600 mg/l proline (P120032, aladdin, China) to prevent the conversion of arginine to proline ([Bendall et al., 2008]). […]
The expression of POST-IT was induced by the addition of 100 ng/ml doxycycline. […] Cell debris was removed by centrifugation, and protein concentration was determined by the BCA assay. […]
Excised gels were sliced into small pieces of ~1 mm^3, rinsed three times with Milli-Q water, decolorized with 50% acetonitrile and 100 mM NH4HCO3, and dehydrated with 100% acetonitrile. […] The resulting tryptic peptides were analyzed by LC-MS/MS at the Institute of Hydrobiology (Chinese Academy of Sciences, Wuhan, China). […]

[2] = test system: LC3-II; assay: Autophagy inhibition by LC3-II western blot in HEK293T cells; type: cell-based, Homo sapiens; settings: 12 hr
Text: (§1) Cells transfected and/or treated with different compounds were harvested at the end of treatment.

[3] = test system: LC3-II; assay: Autophagy inhibition by LC3-II western blot in A375 cells; type: cell-based, Homo sapiens; settings: 12 hr
Text: as §1

[4] = molecular target: T1, VPS37C-V5 (Homo sapiens, UniProt A5D8V6); assay: POST-IT labeling and streptavidin pulldown of VPS37C-V5 in HEK293T cells; type: cell-based; settings: 200 nM DC661-H1, 24 hr
T1 construct: expressed in transfected cells; host or cells: HEK293T
T1 sequence (A5D8V6 whole entry): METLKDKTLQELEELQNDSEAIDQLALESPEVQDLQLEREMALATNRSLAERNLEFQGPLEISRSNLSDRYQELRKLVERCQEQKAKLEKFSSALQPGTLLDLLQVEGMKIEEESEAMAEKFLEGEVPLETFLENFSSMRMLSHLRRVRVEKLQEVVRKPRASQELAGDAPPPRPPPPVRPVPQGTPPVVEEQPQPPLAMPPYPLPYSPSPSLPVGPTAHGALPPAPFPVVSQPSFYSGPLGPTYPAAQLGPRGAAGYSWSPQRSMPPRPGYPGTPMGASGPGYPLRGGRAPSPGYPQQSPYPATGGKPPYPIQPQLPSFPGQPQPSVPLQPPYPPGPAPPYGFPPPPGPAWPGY

[5] = molecular target: T2, SEPHS2 (Homo sapiens, UniProt Q99611, U60C); assay: MST binding to Cy5-labeled SEPHS2; settings: Cy5-labeled recombinant SEPHS2; n = 2, mean ± s.d.
T2 construct: SBPII (N); 6xHis (pET28a backbone, Ni column purification); made in house; host or cells: E. coli BL21(DE3)
T2 sequence (Q99611 with tags, fused parts or gaps U60C): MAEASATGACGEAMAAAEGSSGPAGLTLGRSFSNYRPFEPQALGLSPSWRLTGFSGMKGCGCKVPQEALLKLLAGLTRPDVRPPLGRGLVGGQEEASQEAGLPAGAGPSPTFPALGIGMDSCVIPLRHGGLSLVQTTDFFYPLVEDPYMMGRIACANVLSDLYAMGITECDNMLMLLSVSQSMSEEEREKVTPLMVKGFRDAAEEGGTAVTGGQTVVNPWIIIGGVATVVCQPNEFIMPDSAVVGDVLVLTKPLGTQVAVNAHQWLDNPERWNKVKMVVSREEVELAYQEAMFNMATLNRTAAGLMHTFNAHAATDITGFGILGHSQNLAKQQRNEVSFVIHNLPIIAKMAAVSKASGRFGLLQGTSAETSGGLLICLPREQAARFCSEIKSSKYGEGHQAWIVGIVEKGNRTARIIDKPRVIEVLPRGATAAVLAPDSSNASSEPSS

[6] = molecular target: T3, SRC (Homo sapiens, UniProt P12931); assay: In cellulo pupylation and pulldown assay of SRC in HEK293T cells; type: cell-based; settings: 250 nM DH5
T3 construct: endogenous in cells; host or cells: HEK293T
T3 sequence (P12931 2-536): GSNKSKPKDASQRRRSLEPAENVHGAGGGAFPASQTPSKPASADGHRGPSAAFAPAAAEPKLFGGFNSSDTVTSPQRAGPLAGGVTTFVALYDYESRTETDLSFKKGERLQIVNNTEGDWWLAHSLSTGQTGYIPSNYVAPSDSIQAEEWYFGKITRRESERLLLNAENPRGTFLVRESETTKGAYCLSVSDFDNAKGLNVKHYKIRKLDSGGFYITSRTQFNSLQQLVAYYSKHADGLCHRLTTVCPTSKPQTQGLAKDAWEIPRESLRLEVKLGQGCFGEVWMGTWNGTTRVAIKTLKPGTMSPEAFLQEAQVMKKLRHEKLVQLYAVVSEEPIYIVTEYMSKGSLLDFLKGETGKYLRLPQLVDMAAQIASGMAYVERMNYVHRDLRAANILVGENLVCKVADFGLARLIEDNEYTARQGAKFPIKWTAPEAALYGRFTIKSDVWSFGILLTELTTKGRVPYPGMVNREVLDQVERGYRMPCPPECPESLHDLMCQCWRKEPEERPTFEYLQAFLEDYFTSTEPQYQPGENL

[7] = test system: HEK293T cells; assay: POST-IT^DH5 target-ID proteomics (LC-MS/MS, dasatinib competition); type: cell-based, Homo sapiens; settings: for FC(DH5/DASA) / log2(FC(DH5/DASA)): DH5 vs DH5 + dasatinib competition, imputed data
Experimental: HEK293T cells were plated on two 100 mm dishes for each condition and co-transfected next day with 8 µg of pTol2-HA-Halo^8KR-PafA^S126A,K172R and 16 µg of pEF6a-SBP^K4R-sPup^K61R per dish. […] Cells were harvested in 1 ml of RIPA buffer, supplemented with a protease inhibitor cocktail for each dish. Following brief sonication, cell debris was removed by centrifugation at maximum speed for 10 min at 4°C. The supernatants were collected and mixed with 200 µl of streptavidin magnetic beads that had been prewashed with RIPA buffer. […] The eluates were combined and precipitated using trichloroacetic acid (TCA)/DOC. The resultant protein pellets were neutralized with 1 M Tris-HCl pH 8.8, and separated by Tricine-SDS-PAGE, and the CBB-stained bands were excised, with those smaller than 10 kD being removed, and processed for mass analysis.
Excised gels were sliced into small pieces of ~1 mm^3, rinsed three times with Milli-Q water, decolorized with 50% acetonitrile and 100 mM NH4HCO3, and dehydrated with 100% acetonitrile. The dehydrated gel pieces were then reduced with 10 mM DTT in 50 mM NH4HCO3 at 56°C for 1 hr, carboxymethylated with 55 mM iodoacetamide in the dark at room temperature for 30 min, and digested with trypsin at a 1:50 enzyme to protein mass ratio at 37°C overnight. The peptides were collected, desalted with ZipTipC18 (ZTC18S096, Millipore, USA), dried under vacuum, and stored at –20°C until MS analysis. The resulting tryptic peptides were analyzed by LC-MS/MS at the Institute of Hydrobiology (Chinese Academy of Sciences, Wuhan, China). LC-MS/MS data acquisition was performed using a Q Exactive HF-X mass spectrometer coupled with an Easy-nLC 1200 system (Thermo Fisher Scientific, USA). The peptide mixtures were initially loaded onto a C18 trap column and subsequently separated on a C18 reverse-phase analytical HPLC column, Acclaim PepMap C18 column (75 µm ID ×250 mm, 2 µm particle size, 100 Å pore size, Thermo Fisher Scientific), employing a 100 min gradient program with mobile phase A (0.1% formic acid) and mobile phase B (80% acetonitrile, 0.1% formic acid). The gradient program was as follows: 0–65 min, 5–23% B; 65–85 min, 23–45% B; 85–86 min, 45–90% B; 87–90 min, 90% B; 90–90.1 min, 90–5% B; 90.1–100 min, 5% B, maintained at a constant flow rate of 300 nl/min. For data-dependent acquisition mode analysis, each scan cycle consisted of one full-scan mass spectrum (R = 60 K, AGC = 3e6, max IT = 20 ms, scan range = 350–1800 m/z) followed by 20 MS/MS events (R = 15 K, AGC = 2e5, max IT = 50 ms). The higher-energy collisional dissociation collision energy was set to 28 for ion fragmentation. The isolation window for precursor selection was set to 1.6 Da. The former target ion exclusion was set for 25 s.
For the identification of DH5 targets, raw MS data were analyzed using MaxQuant (version 2.1.0.0, Max Planck Institute of Biochemistry; [Cox and Mann, 2008]) with the Andromeda search engine. The MS data were aligned to the UniProt human protein database (Proteome ID: UP000005640). […] Variable modifications included oxidation (M), acetyl (Protein N-term), deamidation (NQ), and GGE (K). The false discovery rate for both peptide and protein identification was set at 1%. The ‘Match Between run’ option were enabled, with other settings at their default values. Missing values from identified proteins were filled through random imputation and further analyzed statistically to derive p values through unpaired SAM analysis using PANDA-view ([Chang et al., 2018]). Proteins commonly present under DMSO condition were considered nonspecific background interactions and excluded from further analysis.

[8] = molecular target: T4, SRC (Danio rerio, UniProt Q1JPZ3); assay: In vivo pupylation assay using zebrafish embryos; settings: 10 µM DH5, 24 hr, versus DMSO
T4 construct: from tissue; host or cells: whole zebrafish embryos (AB strain) injected with the POST-IT plasmid
T4 sequence (Q1JPZ3 whole entry): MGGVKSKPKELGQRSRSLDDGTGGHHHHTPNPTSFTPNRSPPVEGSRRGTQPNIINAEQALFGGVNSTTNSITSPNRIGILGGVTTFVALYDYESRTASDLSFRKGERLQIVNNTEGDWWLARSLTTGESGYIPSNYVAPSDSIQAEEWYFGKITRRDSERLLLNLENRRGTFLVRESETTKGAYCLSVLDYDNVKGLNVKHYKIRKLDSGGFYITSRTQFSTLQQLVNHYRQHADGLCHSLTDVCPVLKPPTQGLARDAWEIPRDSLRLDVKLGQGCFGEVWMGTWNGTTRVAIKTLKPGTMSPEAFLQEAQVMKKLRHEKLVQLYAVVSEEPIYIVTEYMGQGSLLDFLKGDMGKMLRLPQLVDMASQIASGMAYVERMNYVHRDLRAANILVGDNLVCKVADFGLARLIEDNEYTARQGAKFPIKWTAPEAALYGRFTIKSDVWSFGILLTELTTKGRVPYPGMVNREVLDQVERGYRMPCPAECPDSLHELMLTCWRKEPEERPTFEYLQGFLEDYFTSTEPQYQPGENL
Experimental: To express POST-IT in early zebrafish embryos, 20 pg of pUbi-QFGal4-2A-3×Flag-POST-IT plasmid and 25 pg of transposase mRNA were injected into an embryo at the one-cell stage. The next day, GFP-positive and live embryos were selected, dechorionated with Pronase E (HY-114158, MedChemExpress, USA), and divided into two groups of approximately 1000 embryos each. One group was treated with DMSO and the other with 10 µM DH5 for 24 hr. The embryos were then collected, rinsed with PBS, and lysed in cell lysis buffer using a motorized plastic pestle. The resulting lysates were cleared by centrifugation, and protein concentrations were measured using the BCA assay. Samples were diluted to 2 mg/ml in 1 ml, mixed with 200 µl of prewashed streptavidin magnetic beads, and incubated at 4°C for 3 hr. The beads were washed five times with wash buffer A. Proteins were eluted with 2×SDS sample buffer and subsequently processed for western blot analysis.

[9] = molecular target: SRC(251-536) (Homo sapiens, UniProt P12931); assay: SRC kinase activity assay (Kinase-Lumi luminescent)
SRC(251-536), sequence (P12931 251-536): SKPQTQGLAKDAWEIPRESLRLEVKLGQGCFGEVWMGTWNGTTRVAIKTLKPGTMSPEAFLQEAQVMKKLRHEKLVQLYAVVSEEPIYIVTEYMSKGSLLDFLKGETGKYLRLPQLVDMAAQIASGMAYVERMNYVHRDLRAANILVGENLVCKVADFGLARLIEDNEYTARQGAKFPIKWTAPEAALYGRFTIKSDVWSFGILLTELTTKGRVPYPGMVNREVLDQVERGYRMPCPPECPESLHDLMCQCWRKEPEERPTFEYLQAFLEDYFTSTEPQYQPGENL

Row | Compound | target proteins identified by POST-IT^DC661-H1 (SILAC) [1] | levels of LC3-II band (autophagy inhibition) [2] | levels of LC3-II band (autophagy inhibition) [3] | enrichment of VPS37C-V5 after streptavidin pulldown [4] | Kd [5] [µM] | POST-IT pulldown of endogenous SRC [6] | target proteins identified by POST-IT^DH5 ([7]; HEK293T, 250 nM DH5 with or without 2.5 µM dasatinib, 24 hr) | FC(DH5/DASA) ([7]; protein AAGAB) | log2(FC(DH5/DASA)) ([7]; protein AAGAB) | FC(DH5/DASA) ([7]; protein AAK1) | log2(FC(DH5/DASA)) ([7]; protein AAK1) | FC(DH5/DASA) ([7]; protein AAMDC) | log2(FC(DH5/DASA)) ([7]; protein AAMDC) | FC(DH5/DASA) ([7]; protein AAR2) | log2(FC(DH5/DASA)) ([7]; protein AAR2) | FC(DH5/DASA) ([7]; protein AARS) | log2(FC(DH5/DASA)) ([7]; protein AARS) | enrichment of endogenous SRC by POST-IT in live embryos [8] | IC50 [9] [µM]
1 | O=C(CN(CCCCCCNc1ccnc2cc(Cl)ccc12)CCCCCCNc1ccnc2cc(Cl)ccc12)NCCCCCNC(=O)OCCOCCOCCOC(=O)NCCOCCOCCCCCCCl [DC661-H1] | identified several target proteins directly linked to autophagy regulation | significantly increased | significantly increased | substantially enriched | – | – | – | – | – | – | – | – | – | – | – | – | – | – | –
2 | Cc1nc(Nc2ncc(C(=O)Nc3c(C)cccc3Cl)s2)cc(N2CCN(CCOC(=O)NCCCCCNC(=O)OCCOCCOCCOC(=O)NCCOCCOCCCCCCCl)CC2)n1 [DH5, 23-Chloro-10-oxo-3,6,9,14,17-pentaoxa-11-azatricosyl(2-(4-(6-((5-((2-chloro-6-methylphenyl)carbamoyl)thiazol-2-yl)amino)-2-methylpyrimidin-4-yl)piperazin-1-yl)ethyl) pentane-1,5-diyldicarbamate] | – | – | – | – | 11.6 ± 5.7 | efficiently pull down endogenous SRC | eight known target proteins (FYN, RIPK2, MAPK14, ABL2, ABL1, CSK, LYN, and SRC) with significant enrichment | 1.3259 | 0.4070 | 2.0012 | 1.0009 | 1.9368 | 0.9537 | 1.5565 | 0.6383 | 1.1988 | 0.2616 | marked enrichment | 0.452
